One assay concerns B16f10 melanocytes. The assay is described as follows: Melanin production inhibition. The format is cell-based. Particulars: treatment concentration 0.02%; 72 hours. As for the experimental part: Samples were diluted in B16f10 melanocytes at each concentration, treated for 72 hours, and cultured, and then, the amount of melanin pigment present in melanocytes was quantified. The melanin production inhibitory rate was calculated in comparison to the total protein amount, and the values thereof were measured as percentage (%) based on the DMSO control (DMEM containing 0% serum) set to 100%.
In order to measure the degree of decrease in the amount of melanin pigment in the Saccharomyces cerevisiae KCTC14780BP fermented product and the fraction containing the yeast polypeptide, the inhibition rate of melanin production was compared upon treatment with the positive control group (Arbutin 200 ppm (Lim Y. J. et al., 2009, Arch Pharm Res.)), the Saccharomyces cerevisiae KCTC14780BP fermented product and the fraction containing the yeast polypeptide (Table 15).

Assay [1] deals with T1, TRPV1 (transient receptor potential vanilloid-1) (Homo sapiens, UniProt Q8NER1).
T1 construct: expressed in transfected cells; host or cells: HEK 293T-TRPV1 cells
T1 sequence (Q8NER1 whole entry, species assumed): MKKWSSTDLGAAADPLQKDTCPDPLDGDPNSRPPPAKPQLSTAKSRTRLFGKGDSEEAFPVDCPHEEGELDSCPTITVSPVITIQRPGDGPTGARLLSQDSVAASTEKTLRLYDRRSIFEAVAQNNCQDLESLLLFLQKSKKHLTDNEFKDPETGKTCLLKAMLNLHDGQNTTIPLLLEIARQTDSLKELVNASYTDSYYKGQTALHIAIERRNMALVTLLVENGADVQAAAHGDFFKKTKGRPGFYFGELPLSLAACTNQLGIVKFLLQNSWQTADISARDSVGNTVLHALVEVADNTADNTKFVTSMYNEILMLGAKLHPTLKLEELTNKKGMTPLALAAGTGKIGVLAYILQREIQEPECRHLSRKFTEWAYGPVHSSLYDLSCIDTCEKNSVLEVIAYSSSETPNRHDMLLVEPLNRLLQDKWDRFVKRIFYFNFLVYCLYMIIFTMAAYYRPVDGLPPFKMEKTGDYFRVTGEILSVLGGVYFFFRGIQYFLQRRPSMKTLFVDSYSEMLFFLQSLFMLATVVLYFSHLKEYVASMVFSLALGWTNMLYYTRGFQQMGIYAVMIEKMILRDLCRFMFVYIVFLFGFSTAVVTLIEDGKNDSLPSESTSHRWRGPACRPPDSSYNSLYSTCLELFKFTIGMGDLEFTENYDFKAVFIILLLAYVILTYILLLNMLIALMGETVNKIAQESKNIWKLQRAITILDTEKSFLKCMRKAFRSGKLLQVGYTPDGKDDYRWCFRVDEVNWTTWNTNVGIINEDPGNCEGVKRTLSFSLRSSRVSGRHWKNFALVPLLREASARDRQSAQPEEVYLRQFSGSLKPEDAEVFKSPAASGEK
Description: TRPV1 activity, calcium influx detection assay in HEK 293T-TRPV1 cells. The format is cell-based. As to conditions: untreated group 83.57.

In a further assay the test system is Raw 264.7 cells. The assay is described as follows: NO production inhibitory ability, LPS-treated cells, NO assay kit. Format: cell-based. Particulars: positive control, 20 μg/mL, LPS 1 μg/mL, 24 hours. As for the experimental part: Raw 264.7 cells were diluted for each concentration, treated with 1 μg/mL of LPS, and cultured for 24 hours. The NO production inhibitory ability was evaluated as follows using a NO assay kit (Table 13).
The confirmation of skin soothing and inflammation improvement effects was performed in the same manner as in Example 6-1 (Table 14).

A further assay relates to human keratinocyte HaCaT. The assay is described as follows: Hyaluronic acid synthesis, Quantikine ELISA Hyaluronan. Format: cell-based. As to conditions: positive control, 1 ppm, 72 hours. How it is done:
Samples were treated with human keratinocyte HaCaT for 72 hours at each concentration. Hyaluronic acid synthesis was compared with the control group (DMEM treatment containing 0% serum) using Quantikine ELISA Hyaluronan from R&D Systems to quantify the moisturizing ability (Table 7).
The confirmation of hyaluronic acid synthesis enhancement effect was performed in the same manner as in Example 4-1 (Table 8).
The confirmation of hyaluronic acid synthesis enhancement effect was performed in the same manner as in Example 4-1 (Table 9).
The confirmation of hyaluronic acid synthesis enhancement effect was performed in the same manner as in Example 4-1 (Table 10).
The confirmation of hyaluronic acid synthesis enhancement effect was performed in the same manner as in Example 4-1 (Table 11).
(In an ELISA, binding on a coated surface is turned into a signal by an enzyme label.)

Assay [2] can be described thus: DPPH free radical scavenging. As to conditions: 0.15 mM DPPH, room temperature, 30 minutes, absorbance at 540 nm. The format is biochemical.
A further assay has as its system human dermal fibroblast. Description: Collagen synthesis rate, Procollagen Type I C-peptide (PIP) EIA kit. Format: cell-based. Particulars: positive control, 48 hours. As for the experimental part:
Samples were treated with human dermal fibroblast for 48 hours at each concentration. The collagen synthesis rate was measured using a Procollagen Type I C-peptide (PIP) EIA kit. The collagen synthesis efficacy of the samples was calculated and measured as values in comparison with the negative control group (DMEM containing 0% serum).
In order to confirm the collagen synthesis enhancement effect of the Saccharomyces cerevisiae KCTC14779BP fermented product, the collagen synthesis rate was compared for normal cells, and normal cells treated with TGF-β, Saccharomyces cerevisiae KCTC14779BP fermented product, and normal yeast (Saccharomyces cerevisiae KCTC7296) fermented product (Table 3).
The confirmation of collagen synthesis enhancement effect was performed in the same manner as in Example 3-1, and the collagen synthesis rate was compared for normal cells, and normal cells treated with TGF-β, Saccharomyces cerevisiae KCTC14780BP fermented product, and fraction containing the yeast polypeptide (Table 4).
The confirmation of collagen synthesis enhancement effect was performed in the same manner as in Example 3-1, and the collagen synthesis rate was compared for normal cells, and normal cells treated with TGF-β, Lactobacillus fructivorans KCTC14776BP fermented product, and normal Lactobacillus (Lactobacillus plantarum KCTC3108) fermented product (Table 5).
The confirmation of collagen synthesis enhancement effect was performed in the same manner as in Example 3-1, and the collagen synthesis rate was compared for normal cells, and normal cells treated with TGF-β, Bacillus paramycoides KCTC14777BP fermented product, and normal Bacillus (Bacillus megaterium KCTC3007) fermented product (Table 6).

In a further assay the test system is loricrin (LOR). Description: Loricrin (LOR) gene expression in TNF-a-treated HaCaT cells, qPCR. The format is cell-based, human. As to conditions: Control: TNF-a 10 pg/mL alone; untreated group = 1. As for the experimental part: After treating HaCaT cells with TNF-a (10 pg/mL) for 3 hours, samples were diluted for each concentration, mixed with TNF-a-treated HaCaT cells, and cultured for 24 hours. The degree of increase in the expression of loricrin (LOR), a major component of the skin barrier, was quantified using qPCR (Table 18).

Consider `OC[C@H]1O[C@@H](Oc2ccc(O)cc2)[C@H](O)[C@@H](O)[C@@H]1O` [Arbutin], for which the “Melanin Production Inhibition (%)” value in the assay with B16f10 melanocytes stood at 56.4%.
Turning to `COc1cc(CNC(=O)CCCC/C=C/C(C)C)ccc1O` [Capsaicin], in assay [1] (10 μM, TRPV1 activity induction), the “TRPV1 Activity (RFU, relative fluorescent unit)” value was 101.86 RFU.
As to `CNC(=N)NCCC[C@H](N)C(=O)O` [L-NMMA], the “NO production inhibitory ability (% of control)” value with Raw 264.7 cells (Table 13) and in the assay with Raw 264.7 cells (Table 14) was 47.9 % of control throughout.
For the molecule `CC1=C(/C=C/C(C)=C/C=C/C(C)=C/C(=O)O)C(C)(C)CCC1` [Retinoic acid], the “Hyaluronic Acid Synthesis Rate (% of control)” value is reported as 13.6 % of control in the assay with human keratinocyte HaCaT (Table 7); 17.8 % of control in the assay with human keratinocyte HaCaT (Table 8); 27.6 % of control with human keratinocyte HaCaT (Table 9); 22.0 % of control in the assay with human keratinocyte HaCaT (Table 10); 15.4 % of control in the assay on human keratinocyte HaCaT (Table 11).
Consider `O=C1O[C@H]([C@@H](O)CO)C(O)=C1O` [Vitamin C], for which the “IC 50 (%)” value in assay [2] was 0.000606 ± 0.00006%.
Capsazepin: in assay [1] (3 μM, TRPV1 activity inhibition), the “TRPV1 Activity (RFU, relative fluorescent unit)” value was 75.91 RFU.
For TGF-β, the “Collagen Synthesis Rate (% of control)” value with human dermal fibroblast (Table 3, 10 ppb, vs negative control (DMEM 0% serum)) was 27.55 % of control; with human dermal fibroblast (Table 4, 10 ng/mL), 23.92 % of control; in the assay with human dermal fibroblast (Table 5, 10 ppb) it was 24.6 % of control; with human dermal fibroblast (Table 6, 10 ppb), 20.84 % of control.
With TNF-a, in the assay on loricrin (LOR), the “LOR Gene Expression (Relative mRNA level, of control)” value came to 0.39.

The values are drawn from US12611372B2, “Strain and use thereof” (LG HOUSEHOLD & HEALTH CARE LTD., priority 2021, dated 2026).
